Patent publication US20100092526A1, “NANOEMULSION THERAPEUTIC COMPOSITIONS AND METHODS OF USING THE SAME” (NanoBio Corporation, priority 2008, published 2010)
Values after ≈ are worked out from the molar mass of the structure shown. Values joined by “and” are separate entries in the source; they are usually repeats but may differ in a detail not shown here. Equal entries are not always repeated. Where two headings read alike, the source gives them in different places.

Experiments:
Assay type in all cases: cell-based
Burkholderia strains = assay: Checkerboard synergy study (FIC/FBC index); conditions: combined with P4075EC+EDTA
Stenotrophomonas strains = assay: Checkerboard synergy study (FIC/FBC index); conditions: combined with P4075EC+EDTA
Acinetobacter strains = assay: Checkerboard synergy study (FIC/FBC index); conditions: combined with P4075EC+EDTA
[1] = test system: methicillin-resistant Staphylococcus aureus (MRSA); assay: Susceptibility (MIC/MBC) of MRSA clinical isolates; conditions: for MBC50(15) / MIC50(15) / MBC90(26) / MIC90(26): 29 MRSA clinical isolates; for MBC50(15) / MIC50(15): rank 15; for MBC90(26) / MIC90(26): rank 26
[2] = share of ten Burkholderia strains with synergy
[3] = share of Stenotrophomonas strains with synergy
[4] = share of 10 Acinetobacter strains with synergy
[5] = silver nitrate column, individual MRSA clinical isolates by rank order 1-29
[6] = Staphylococcus aureus, MRSA isolates, read-out: MIC90
[7] = individual MRSA clinical isolates, values listed by rank order 1-29

NC[C@H]1O[C@H](O[C@H]2[C@H](O)[C@@H](O[C@H]3O[C@H](CO)[C@@H](O)[C@H](N)[C@H]3O)[C@H](N)C[C@@H]2N)[C@H](N)C[C@@H]1O [Tobra]
FBC (Burkholderia strains; isolate NB21): 0.48
FIC (Burkholderia strains; isolate NB21): 0.27
Synergy (FBC) (Burkholderia strains; isolate NB21): yes
Synergy (FIC) (Burkholderia strains; isolate NB21): yes
FBC (Burkholderia strains; isolate NB22): 1.23
FIC (Burkholderia strains; isolate NB22): 0.35
Synergy (FBC) (Burkholderia strains; isolate NB22): indifferent
Synergy (FIC) (Burkholderia strains; isolate NB22): yes
FBC (Burkholderia strains; isolate NB23): 1.09
FIC (Burkholderia strains; isolate NB23): 1.06
Synergy (FBC) (Burkholderia strains; isolate NB23): indifferent
Synergy (FIC) (Burkholderia strains; isolate NB23): indifferent
FBC (Burkholderia strains; isolate NB24): 1.36
FIC (Burkholderia strains; isolate NB24): 1.31
Synergy (FBC) (Burkholderia strains; isolate NB24): indifferent
Synergy (FIC) (Burkholderia strains; isolate NB24): indifferent
FBC (Burkholderia strains; isolate NB25): 0.99
FIC (Burkholderia strains; isolate NB25): 1.45
Synergy (FBC) (Burkholderia strains; isolate NB25): indifferent
Synergy (FIC) (Burkholderia strains; isolate NB25): indifferent
FBC (Burkholderia strains; isolate NB26): 0.92
FIC (Burkholderia strains; isolate NB26): 0.12
Synergy (FBC) (Burkholderia strains; isolate NB26): indifferent
Synergy (FIC) (Burkholderia strains; isolate NB26): yes
FBC (Burkholderia strains; isolate NB27): 1.27
FIC (Burkholderia strains; isolate NB27): 1.44
Synergy (FBC) (Burkholderia strains; isolate NB27): indifferent
Synergy (FIC) (Burkholderia strains; isolate NB27): indifferent
FBC (Burkholderia strains; isolate NB28b): 1.06
FIC (Burkholderia strains; isolate NB28b): 0.54
Synergy (FBC) (Burkholderia strains; isolate NB28b): indifferent
Synergy (FIC) (Burkholderia strains; isolate NB28b): yes
FBC (Burkholderia strains; isolate NB29): 0.07
FIC (Burkholderia strains; isolate NB29): 0.32
Synergy (FBC) (Burkholderia strains; isolate NB29): yes
Synergy (FIC) (Burkholderia strains; isolate NB29): yes
FBC (Burkholderia strains; isolate NB30): 0.54
FIC (Burkholderia strains; isolate NB30): 0.27
Synergy (FBC) (Burkholderia strains; isolate NB30): yes
Synergy (FIC) (Burkholderia strains; isolate NB30): yes
% FBC Synergy (Burkholderia strains; [2]): 30%
% FIC Synergy (Burkholderia strains; [2]): 50%
FBC (Stenotrophomonas strains; isolate NB42): 2.15
FIC (Stenotrophomonas strains; isolate NB42): 0.14
Synergy (FBC) (Stenotrophomonas strains; isolate NB42): indifferent
Synergy (FIC) (Stenotrophomonas strains; isolate NB42): yes
FBC (Stenotrophomonas strains; isolate NB43): 2.29
FIC (Stenotrophomonas strains; isolate NB43): 1.40
Synergy (FBC) (Stenotrophomonas strains; isolate NB43): indifferent
Synergy (FIC) (Stenotrophomonas strains; isolate NB43): indifferent
FBC (Stenotrophomonas strains; isolate NB44): 2.86
FIC (Stenotrophomonas strains; isolate NB44): 1.5
Synergy (FBC) (Stenotrophomonas strains; isolate NB44): indifferent
Synergy (FIC) (Stenotrophomonas strains; isolate NB44): indifferent
FBC (Stenotrophomonas strains; isolate NB45): 1.50
FIC (Stenotrophomonas strains; isolate NB45): 0.97
Synergy (FBC) (Stenotrophomonas strains; isolate NB45): indifferent
Synergy (FIC) (Stenotrophomonas strains; isolate NB45): indifferent
FBC (Stenotrophomonas strains; isolate Steno 1): 1.57
FIC (Stenotrophomonas strains; isolate Steno 1): 0.79
Synergy (FBC) (Stenotrophomonas strains; isolate Steno 1): indifferent
Synergy (FIC) (Stenotrophomonas strains; isolate Steno 1): indifferent
FBC (Stenotrophomonas strains; isolate Steno 2): 2.23
FIC (Stenotrophomonas strains; isolate Steno 2): 0.04
Synergy (FBC) (Stenotrophomonas strains; isolate Steno 2): indifferent
Synergy (FIC) (Stenotrophomonas strains; isolate Steno 2): yes
FBC (Stenotrophomonas strains; isolate Steno 3): 1.29
FIC (Stenotrophomonas strains; isolate Steno 3): 0.79
Synergy (FBC) (Stenotrophomonas strains; isolate Steno 3): indifferent
Synergy (FIC) (Stenotrophomonas strains; isolate Steno 3): indifferent
FBC (Stenotrophomonas strains; isolate Steno 4): 1.61
FIC (Stenotrophomonas strains; isolate Steno 4): 1.72
Synergy (FBC) (Stenotrophomonas strains; isolate Steno 4): indifferent
Synergy (FIC) (Stenotrophomonas strains; isolate Steno 4): indifferent
FBC (Stenotrophomonas strains; isolate Steno 6): 0.89
FIC (Stenotrophomonas strains; isolate Steno 6): 0.59
Synergy (FBC) (Stenotrophomonas strains; isolate Steno 6): indifferent
Synergy (FIC) (Stenotrophomonas strains; isolate Steno 6): indifferent
FBC (Stenotrophomonas strains; isolate Steno 8): 1.15
FIC (Stenotrophomonas strains; isolate Steno 8): 0.63
Synergy (FBC) (Stenotrophomonas strains; isolate Steno 8): indifferent
Synergy (FIC) (Stenotrophomonas strains; isolate Steno 8): indifferent
% FBC Synergy (Stenotrophomonas strains; [3]): 0%
% FIC Synergy (Stenotrophomonas strains; [3]): 20%
FBC (Acinetobacter strains; isolate NB31): 1.50
FIC (Acinetobacter strains; isolate NB31): 0.98
Synergy (FBC) (Acinetobacter strains; isolate NB31): no
Synergy (FIC) (Acinetobacter strains; isolate NB31): indifferent
FBC (Acinetobacter strains; isolate NB32): 1.79
FIC (Acinetobacter strains; isolate NB32): 0.88
Synergy (FBC) (Acinetobacter strains; isolate NB32): no
Synergy (FIC) (Acinetobacter strains; isolate NB32): indifferent
FBC (Acinetobacter strains; isolate NB33): 1.75
Synergy (FBC) (Acinetobacter strains; isolate NB33): no
Synergy (FIC) (Acinetobacter strains; isolate NB33): indifferent
FBC (Acinetobacter strains; isolate NB34): 0.24
FIC (Acinetobacter strains; isolate NB34): 0.41
Synergy (FBC) (Acinetobacter strains; isolate NB34): yes
Synergy (FIC) (Acinetobacter strains; isolate NB34): yes
FIC (Acinetobacter strains; isolate NB35): 1.21
Synergy (FBC) (Acinetobacter strains; isolate NB35): no
Synergy (FIC) (Acinetobacter strains; isolate NB35): indifferent
FBC (Acinetobacter strains; isolate NB36): 2.29
FIC (Acinetobacter strains; isolate NB36): 3.30
Synergy (FBC) (Acinetobacter strains; isolate NB36): no
Synergy (FIC) (Acinetobacter strains; isolate NB36): indifferent
FBC (Acinetobacter strains; isolate NB37): 1.72
FIC (Acinetobacter strains; isolate NB37): 0.75
Synergy (FBC) (Acinetobacter strains; isolate NB37): no
Synergy (FIC) (Acinetobacter strains; isolate NB37): indifferent
FBC (Acinetobacter strains; isolate NB38): 1.57
FIC (Acinetobacter strains; isolate NB38): 1.05
Synergy (FBC) (Acinetobacter strains; isolate NB38): no
Synergy (FIC) (Acinetobacter strains; isolate NB38): indifferent
FBC (Acinetobacter strains; isolate NB39): 3.52
FIC (Acinetobacter strains; isolate NB39): 3.30
Synergy (FBC) (Acinetobacter strains; isolate NB39): no
Synergy (FIC) (Acinetobacter strains; isolate NB39): indifferent
FBC (Acinetobacter strains; isolate NB40): 3.01
FIC (Acinetobacter strains; isolate NB40): 3.01
Synergy (FBC) (Acinetobacter strains; isolate NB40): no
Synergy (FIC) (Acinetobacter strains; isolate NB40): indifferent
% FBC Synergy (Acinetobacter strains; [4]): 10%
% FIC Synergy (Acinetobacter strains; [4]): 10%

O=[N+]([O-])[O-].[Ag+] [silver nitrate]
MIC90 ([1]; MRSA isolates): 0.00063%
MBC50(15) ([1]; silver nitrate column): 0.0025 µg/mL
MIC50(15) ([1]; silver nitrate column): 0.00031 µg/mL
MBC90(26) ([1]; silver nitrate column): >0.01 µg/mL
MIC90(26) ([1]; silver nitrate column): 0.00063 µg/mL
MBC [1, 5]: 0.01 μg/ml and >0.01 μg/ml (3×) and >0.005 μg/ml (3×) and 0.005 μg/ml and 0.0025 μg/ml (12×) and 0.00125 μg/ml (9×)
MIC [1, 5]: 0.0025 μg/ml and 0.00125 μg/ml (2×) and 0.00626 μg/ml (7×) and 0.00312 μg/ml (19×)

COc1cc(Cc2cnc(N)nc2N)cc(OC)c1OC [trimethoprim]
MIC90 [1, 6]: 0.5 µg/mL (≈ 1.72 µM)

C/C(=C\C(=O)OCCCCCCCCC(=O)O)C[C@@H]1OC[C@H](C[C@@H]2O[C@H]2[C@@H](C)[C@H](C)O)[C@@H](O)[C@H]1O [Mupirocin, mupirocin]
isolates resistant ([1]; MRSA isolates): 31%

COc1cc(Cc2cnc(N)nc2N)cc(OC)c1OC [Trim]
MBC50(15) [1]: 0.5 µg/mL (≈ 1.72 µM)
MIC50(15) [1]: 0.125 µg/mL (≈ 0.431 µM)
MBC90(26) [1]: >4 µg/mL
MIC90(26) [1]: 0.5 µg/mL (≈ 1.72 µM)
MBC [1, 7]: >64 μg/ml and >16 μg/ml (2×) and >4 μg/ml and >2 μg/ml (3×) and 4 μg/ml and 2 μg/ml (3×) and 1 μg/ml (2×) and 0.5 μg/ml (5×) and 0.25 μg/ml (6×) and 0.125 μg/ml (4×) and 0.0125 μg/ml
MIC [1, 7]: >64 μg/ml and 1 μg/ml (2×) and 0.5 μg/ml and 0.25 μg/ml and 0.125 μg/ml (24×)

Cc1onc(-c2ccccc2)c1C(=O)N[C@@H]1C(=O)N2[C@@H]1SC(C)(C)[C@@H]2C(=O)O [Ox]
MBC50(15) [1]: >16 µg/mL
MIC50(15) [1]: >16 µg/mL
MBC90(26) [1]: >16 µg/mL
MIC90(26) [1]: >16 µg/mL
MBC [1, 7]: >16 μg/ml (28×) and 1 μg/ml
MIC [1, 7]: >16 μg/ml (26×) and 16 μg/ml (2×) and 0.5 μg/ml

C[C@H]1c2cccc(O)c2C(=O)C2=C(O)[C@]3(O)C(=O)C(C(N)=O)=C(O)[C@@H](N(C)C)[C@@H]3[C@@H](O)[C@@H]21 [Dox]
MBC50(15) [1]: >4 µg/mL
MIC50(15) [1]: 0.25 µg/mL (≈ 0.563 µM)
MBC90(26) [1]: >64 µg/mL
MIC90(26) [1]: 4 µg/mL (≈ 9 µM)
MBC [1, 7]: >128 μg/ml and >64 μg/ml (4×) and >4 μg/ml (21×) and 2 μg/ml and 1 μg/ml (2×)
MIC [1, 7]: 4 μg/ml (4×) and 0.25 μg/ml (25×)

CN[C@H](CC(C)C)C(=O)N[C@H]1C(=O)N[C@@H](CC(N)=O)C(=O)N[C@H]2C(=O)N[C@H]3C(=O)N[C@H](C(=O)N[C@H](C(=O)O)c4cc(O)cc(O)c4-c4cc3ccc4O)[C@H](O)c3ccc(c(Cl)c3)Oc3cc2cc(c3O[C@@H]2O[C@H](CO)[C@@H](O)[C@H](O)[C@H]2O[C@H]2C[C@](C)(N)[C@H](O)[C@H](C)O2)Oc2ccc(cc2Cl)[C@H]1O [Vanco]
MBC50(15) [1]: 1 µg/mL (≈ 0.69 µM)
MIC50(15) [1]: 1 µg/mL (≈ 0.69 µM)
MBC90(26) [1]: 2 µg/mL (≈ 1.38 µM)
MIC90(26) [1]: 1 µg/mL (≈ 0.69 µM)
MBC [1, 7]: 4 μg/ml (3×) and 2 μg/ml (7×) and 1 μg/ml (16×) and 0.5 μg/ml (3×)
MIC [1, 7]: 2 μg/ml and 1 μg/ml (20×) and 0.5 μg/ml (8×)

CC(=O)O.NCc1ccc(S(N)(=O)=O)cc1 [Maf. Acet.]
MBC50(15) [1]: >128 µg/mL
MBC90(26) [1]: >128 µg/mL
MBC [1, 7]: >128 µg/mL

Cc1cc(NS(=O)(=O)c2ccc(N)cc2)no1 [sulfamethoxazole]
MIC90 [1, 6]: 4 µg/mL (≈ 15.8 µM)

CCC[C@@H]1C[C@@H](C(=O)N[C@@H]([C@H]2O[C@H](SC)[C@H](O)[C@@H](O)[C@H]2O)[C@H](C)Cl)N(C)C1 [Clind]
MBC50(15) [1]: >64 µg/mL
MIC50(15) [1]: >64 µg/mL
MBC90(26) [1]: >64 µg/mL
MIC90(26) [1]: >64 µg/mL
MBC [1, 7]: >64 μg/ml (17×) and >2 μg/ml (10×) and 2 μg/ml and 1 μg/ml
MIC [1, 7]: >64 μg/ml (17×) and 0.125 μg/ml (12×)
